Measured values reported in patent publication US5128354A, “Agent for treating ischemic brain damage” (priority 1987, dated 1992).
Where two headings read alike, the source gives them in different places.

How the values were obtained:
[1] = test system: cerebral hypoxia; assay: Prolonging effect on the persistent time of gasping movements in complete ischemia; type: in vivo, mice (STD-ddY strain, male); settings: for ED (15% prolongation): Mus musculus, po, read-out: Complete ischemia PD15 (dose which prolonged the persistent time of gasping movements by 15%)
Description: (§1) Protective effect on cerebral hypoxia
(1) Prolonging effect on the persistent time of gasping movements in complete ischemia
This test was carried out according to the method described in Arch. int. Pharmacodyn., 233, 136-144 (1978).
Male mice of STD-ddY strain weighing 22-26 g were used in groups of 5 animals. A prescribed amount of test compounds, suspended in a 0.5% aqueous tragacanth solution, was orally administered to mice at a volume of 0.1 ml per 10 g of body weight. Two hours or one hour (for carbamazepine) after the administration of test compounds, the necks of the animals were cut with scissors for decapitation. The persistent time of gasping movements in the isolated heads was measured. To control group was orally administered only the same volume of a 0.5% aqueous tragacanth solution. The PD15 was calculated from the dose-activity relationship. The PD15 means the dose of a test compound which prolonged the persistent time of gasping movements by 15% in comparison with that of control group.

[2] = test system: cerebral hypoxia; assay: Prolonging effect on survival time of mice in normobaric hypoxia; type: in vivo, mice (STD-ddY strain, male); settings: Mus musculus, po, read-out: Normobaric hypoxia PD30 (dose which prolonged the survival time by 30%)
Description: as §1
(2) Prolonging effect on survival time of mice in normobaric hypoxia
This test was carried out according to the method described in Naunyn-Schmiedeberg's Arch. Pharmacol., 334, 282-289 (1986).
Male mice of STD-ddY strain weighing […] were used in groups of 5 animals. A prescribed amount of test compounds, suspended in a 0.5% aqueous tragacanth solution, was orally administered to mice at a volume of 0.1 ml per 10 g of body weight. Two hours or one hour (for carbamazepine) after the administration of test compounds, each animal was taken in a 2.5-liter plastic chamber, and a mixed gas of 4% oxygen and 96% nitrogen was passed through the chamber at a rate of 4 liters/minute. There was measured the time to the death (respiratory cessation) of the animal. To control group was orally administered only the same volume of a 0.5% aqueous tragacanth solution. The PD30 was calculated from the dose-activity relationship. The PD30 means the dose of a test compound which prolonged the survival time by 30% in comparison with that of control group.

[3] = test system: delayed neuronal death in the gerbil hippocampal CA1 subfield; assay: Protective effect on delayed neuronal death in the gerbil hippocampus following a transient ischemia; type: in vivo, Mongolian gerbils (male); settings: p.o.; for CA1 neuronal density: ± S.E., 5 min occlusion, 4 days after
Description: Protective effect on delayed neuronal death in the gerbil hippocampus following a transient ischemia
This test was carried out according to the method described in Brain Res., 239, 57-69 (1982).
Male Mongolian gerbils weighing 65-85 g were used in groups of 5 or 6 animals. A prescribed amount of test compounds, suspended in a 0.5% aqueous tragacanth solution, was orally administered to animals at a volume of 0.2 ml per 100 g of body weight. To control group was orally administered only the same volume of 0.5% aqueous tragacanth solution. One hour after the administration of test compounds, the necks of the gerbils were opened by a mid line incision under ether anesthesia, and then the bilateral common carotid arteries were exposed and occluded with Zen clips to block the blood flow. After 5 minutes, the clips were released and the blood flow was restored. Animals for the sham-operated group were operated in the same manner as above except that the occlusion of the carotid arteries. After 4 days, the animals were anesthetized with pentobarbital and fixed by transcardiac perfusion with a fixative solution containing 2.5% glutaraldehyde and 2% formaldehyde in 0.1M phosphate buffer (pH 7.4) at a pressure of 120 cm H2 O, and then the brains were removed. After the isolated brains were kept in the same fixative solution as above overnight, they were cut into coronal sections which contained the hippocampal area 0.5-1.0 mm posterior to the most rostral tip of the hippocampus or 1.4-1.9 mm posterior to bregma. Dissected brains were dehydrated and then embedded in paraffin. From the paraffin block, 4 μm-thin sections were prepared and subjected to hematoxylin-eosin staining.
The number of morphologically intact neurons remaining in the hippocampal CA1 subfield of the above tissue specimen was measured using a computer-image digitizer (Image Research Inc., Canada, MCID model) at a magnification of 200×, and neuronal density per mm^2 area of the right and left hippocampus, namely, the CA1 neuronal density, was calculated.
The value of the CA1 neuronal density in the table was calculated based on the average of the numbers of the remaining neurons in the right and left hippocampus of each animal. Student's t-test was used for the statistical analysis.

[4] = Hypnonarcotic activity (loss of righting reflex); design: species or system mice (STD-ddY strain, male); settings: mouse, in vivo, po
Description: (§2) This test was carried out according to the method described in Japan. J. Pharmacol., 13, 259-273 (1963).
(§3) Male mice of STD-ddY strain weighing 22-26 g were used in groups of 5-10 animals. A prescribed amount of test compounds, suspended in a 0.5% aqueous tragacanth solution, was orally administered to mice at a volume of 0.1 ml per 10 g of body weight. […] The HD50 was calculated by Probit method. The HD50 means the dose of a test compound which produced hypnonarcotic effect in 50% of animals.

[5] = Arch. int. Pharmacodyn., 286, 282-298 (1987); cited from earlier work
[6] = in vivo; type: in vivo; settings: mouse, in vivo, po; mice, p.o.; mortality observed for 7 days; Probit method; read-out: Acute toxicity LD50
Description: (§4) Male mice of STD-ddY strain weighing 22-26 g were used in groups of 5-10 animals. A prescribed amount of test compounds, suspended in a 0.5% aqueous tragacanth solution, was orally administered to mice at a volume of 0.2 ml per 10 g of body weight.

[7] = test system: mice; assay: Hypnonarcotic activity (loss of righting reflex); design: species or system mice (STD-ddY strain, male); settings: mouse, in vivo, po, 200 mg/kg
Description: as §2, §3

[8] = test system: mice; assay: in vivo; type: in vivo; settings: p.o.
Description: as §4

[9] = mice, p.o., 2 h (1 h for carbamazepine) after administration
[10] = mice, p.o., 4% oxygen/96% nitrogen, 2 h (1 h for carbamazepine) after administration

Row | SMILES | ED (15% prolongation) [1, 9] [mg/kg] | ED (30% prolongation) [2, 10] [mg/kg] | CA1 neuronal density ([3]; 10 mg/kg) | CA1 neuronal density ([3]; 30 mg/kg) | protective effect on delayed neuronal death (in words) ([3]; 100 mg/kg) | CA1 neuronal density ([3]; 100 mg/kg) | TD50 ([4]; mice, p.o., righting reflex lost for 60 minutes or more, Probit method, read-out: Hypnonarcotic activity HD50 (dose which produced hypnonarcotic effect in 50% of animals)) [mg/kg] | effect against cerebral hypoxia (in words) [5] | ED (15% prolongation) [1] [mg/kg] | ED (30% prolongation) [2] [mg/kg] | LD50 at 168 h [6] [mg/kg] | TD50 [4] [mg/kg] | Clonic convulsion and death [7] | protective effects on cerebral hypoxia compared with reference drugs (Table 1) ([1]; mice, p.o., complete ischemia and normobaric hypoxia (also A2)) | protective effect on delayed neuronal death (in words) ([3]; 30 mg/kg) | toxicity (in words) [8]
1 | NC(=O)N1c2ccccc2C=Cc2ccccc21 [Carbamazepine] | 5.5 | 19.6 | 482 ± 272 number of cells/mm^2 | 932 ± 353 number of cells/mm^2 | relatively weak protective effect | 1235 ± 330 number of cells/mm^2 | 345 | effective against cerebral hypoxia | – | – | – | – | – | – | – | –
2 | CCC1(c2ccccc2)C(=O)NC(=O)NC1=O [Phenobarbital] | – | – | – | – | – | – | – | – | 15 | 26.8 | 201 | – | – | – | – | –
3 | O=C1NC(=O)C(c2ccccc2)(c2ccccc2)N1 [Phenytoin] | 5.5 | 22.7 | – | 228 ± 87 number of cells/mm^2 | relatively weak protective effect | 1464 ± 503 number of cells/mm^2 | – | effective against cerebral hypoxia | – | – | – | > 200 | convulsion in all mice and of death in some mice | – | – | –
4 | NS(=O)(=O)Cc1noc2ccccc12 [The active compound of the invention, 3-Sulfamoylmethyl-1,2-benzisoxazole] | – | – | 519 ± 28 number of cells/mm^2 | 2713 ± 228 number of cells/mm^2 | almost completely prevented the delayed neuronal death | 3326 ± 49 number of cells/mm^2 | – | – | 6 | 29.4 | 1890 | 934 | – | comparable to those of phenobarbital, phenytoin and carbamazepine | extremely strong protective effect | weak
